Assay results published in patent US8969325B2, “TRPV1 antagonists” (AbbVie Inc., priority 2011, dated 2015).

Key:
[1] = target: T1, human TRPV1 (Homo sapiens (Human), UniProt Q8NER1); test: Capsaicin Activation Assay (intracellular Ca2+, FLIPR); format: cell-based; details: recombinant HEK293 cells expressing hTRPV1, 50 nM capsaicin
Procedure, shortened: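 Ca2+ fluorescence was recorded by FLIPR every 1 to 5 seconds in HEK293 cells, clonally selected for stable human TRPV1 expression and plated one day ahead. Test compounds came as serial dilutions of 10 mM DMSO stocks.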

[2] = target: T1, human TRPV1; test: Acid Activation Assay (pH 5.0, intracellular Ca2+, FLIPR); format: cell-based; details: percentage of the maximal pH 5.0-induced response remaining; recombinant HEK293 hTRPV1 cells; maximum concentration tested 37.5 μM
Procedure, shortened: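 Readout: peak [Ca2+]i fluorescence over baseline on FLIPR, expressed as percentage remaining of the maximal pH 5.0-evoked signal. Stable hTRPV1-HEK293 cells with Calcium-4 dye received compound (12 half-log concentrations, maximum 37.5 μM) 3 min before acidic pH 5.0 buffer.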

T1 sequence (Q8NER1 whole entry): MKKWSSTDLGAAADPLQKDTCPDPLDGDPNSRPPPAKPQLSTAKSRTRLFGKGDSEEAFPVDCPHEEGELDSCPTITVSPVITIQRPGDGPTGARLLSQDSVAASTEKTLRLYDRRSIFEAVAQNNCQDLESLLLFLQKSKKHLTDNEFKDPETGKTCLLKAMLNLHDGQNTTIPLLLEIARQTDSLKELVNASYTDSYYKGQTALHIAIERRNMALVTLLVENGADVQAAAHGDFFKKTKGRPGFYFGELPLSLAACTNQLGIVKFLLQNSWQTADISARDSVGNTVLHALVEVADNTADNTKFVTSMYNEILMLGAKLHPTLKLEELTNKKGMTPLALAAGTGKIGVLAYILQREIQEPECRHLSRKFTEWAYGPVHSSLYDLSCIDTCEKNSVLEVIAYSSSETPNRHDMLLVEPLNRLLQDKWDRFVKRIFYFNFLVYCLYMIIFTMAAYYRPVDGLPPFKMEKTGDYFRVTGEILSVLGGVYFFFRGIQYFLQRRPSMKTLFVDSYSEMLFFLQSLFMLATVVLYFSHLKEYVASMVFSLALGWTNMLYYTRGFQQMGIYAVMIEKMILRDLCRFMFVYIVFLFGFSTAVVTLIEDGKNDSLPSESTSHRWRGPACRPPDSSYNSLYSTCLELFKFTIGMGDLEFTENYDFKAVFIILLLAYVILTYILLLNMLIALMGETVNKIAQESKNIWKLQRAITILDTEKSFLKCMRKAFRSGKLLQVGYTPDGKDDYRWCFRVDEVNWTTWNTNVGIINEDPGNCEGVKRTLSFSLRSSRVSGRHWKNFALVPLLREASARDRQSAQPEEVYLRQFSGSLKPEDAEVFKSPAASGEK

| Compound | IC50 [1] [µM] | human TRPV1 H^+ (max % remain) [2] [%] |
| --- | --- | --- |
| Cn1c(=O)ccc2c(NC(=O)N[C@@H]3CCOc4cc(C(F)(F)F)ccc43)cccc21 [Example 64, 1-(1-methyl-2-oxo-1,2-dihydroquinolin-5-yl)-3-[(4R)-7-(trifluoromethyl)-3,4-dihydro-2H-chromen-4-yl]urea] | 0.014 | 26 |
| Cn1c(=O)ccc2c(NC(=O)N[C@@H]3CC4(CCCC4)Oc4ccccc43)cccc21 [Example 65, 1-[(4R)-3,4-dihydrospiro[chromene-2,1′-cyclopentan]-4-yl]-3-(1-methyl-2-oxo-1,2-dihydroquinolin-5-yl)urea] | 0.028 | 37 |
| CCC1(CC)C[C@@H](NC(=O)Nc2cccc3c2ccc(=O)n3C)c2cccc(F)c2O1 [Example 66, 1-[(4R)-2,2-diethyl-8-fluoro-3,4-dihydro-2H-chromen-4-yl]-3-(1-methyl-2-oxo-1,2-dihydroquinolin-5-yl)urea] | 0.015 | 42 |
| CCC1(CC)C[C@@H](NC(=O)Nc2cccc3c2ccc(=O)n3C)c2ccccc2O1 [Example 67, 1-[(4R)-2,2-diethyl-3,4-dihydro-2H-chromen-4-yl]-3-(1-methyl-2-oxo-1,2-dihydroquinolin-5-yl)urea] | 0.017 | 41 |
| Cn1c(=O)ccc2c(NC(=O)N[C@@H]3CCc4cc(C(C)(C)C)ccc43)cccc21 [Example 68, 1-[(1R)-5-tert-butyl-2,3-dihydro-1H-inden-1-yl]-3-(1-methyl-2-oxo-1,2-dihydroquinolin-5-yl)urea] | 0.02 | 34 |
| CCC1(CC)C[C@@H](NC(=O)Nc2cccc3c2ccc(=O)n3C)c2ccc(C(F)(F)F)cc2O1 [Example 69, 1-[(4R)-2,2-diethyl-7-(trifluoromethyl)-3,4-dihydro-2H-chromen-4-yl]-3-(1-methyl-2-oxo-1,2-dihydroquinolin-5-yl)urea] | 0.055 | 13 |
| CCC1(CC)C[C@@H](NC(=O)Nc2cccc3c2ccc(=O)n3C)c2ccc(Cl)cc2O1 [Example 70, 1-[(4R)-7-chloro-2,2-diethyl-3,4-dihydro-2H-chromen-4-yl]-3-(1-methyl-2-oxo-1,2-dihydroquinolin-5-yl)urea] | 0.029 | 17 |
| Cn1c(=O)ccc2c(NC(=O)N[C@@H]3CC(CF)(CF)Oc4ccc(F)cc43)cccc21 [Example 71, 1-[(4R)-6-fluoro-2,2-bis(fluoromethyl)-3,4-dihydro-2H-chromen-4-yl]-3-(1-methyl-2-oxo-1,2-dihydroquinolin-5-yl)urea] | 0.029 | 46 |
| Cn1c(=O)ccc2c(NC(=O)N[C@@H]3CC(CF)(CF)Oc4c(F)cc(F)cc43)cccc21 [Example 72, 1-[(4R)-6,8-difluoro-2,2-bis(fluoromethyl)-3,4-dihydro-2H-chromen-4-yl]-3-(1-methyl-2-oxo-1,2-dihydroquinolin-5-yl)urea] | 0.054 | 36 |
| Cn1c(=O)ccc2c(NC(=O)N[C@@H]3CC4(CCC4)Oc4ccc(F)cc43)cccc21 [Example 73, 1-[(4R)-6-fluoro-3,4-dihydrospiro[chromene-2,1′-cyclobutan]-4-yl]-3-(1-methyl-2-oxo-1,2-dihydroquinolin-5-yl)urea] | 0.019 | 32 |
| CCC1(CC)C[C@@H](NC(=O)Nc2cccc3c2ccc(=O)n3C)c2cc(F)ccc2O1 [Example 74, 1-[(4R)-2,2-diethyl-6-fluoro-3,4-dihydro-2H-chromen-4-yl]-3-(1-methyl-2-oxo-1,2-dihydroquinolin-5-yl)urea] | 0.019 | 28 |
| CCCC1(CCC)C[C@@H](NC(=O)Nc2cccc3c2ccc(=O)n3C)c2cccc(F)c2O1 [Example 75, 1-[(4R)-8-fluoro-2,2-dipropyl-3,4-dihydro-2H-chromen-4-yl]-3-(1-methyl-2-oxo-1,2-dihydroquinolin-5-yl)urea] | 0.024 | 50 |
| CCC1(CC)C[C@@H](NC(=O)Nc2cccc3c2ccc(=O)n3C)c2ccc(OC(F)(F)F)cc2O1 [Example 76, 1-[(4R)-2,2-diethyl-7-(trifluoromethoxy)-3,4-dihydro-2H-chromen-4-yl]-3-(1-methyl-2-oxo-1,2-dihydroquinolin-5-yl)urea] | 0.032 | 17 |
| Cn1c(=O)ccc2c(NC(=O)N[C@@H]3CC(C)(C)Oc4ccccc43)cccc21 [Example 77, 1-[(4R)-2,2-dimethyl-3,4-dihydro-2H-chromen-4-yl]-3-(1-methyl-2-oxo-1,2-dihydroquinolin-5-yl)urea] | 0.041 | 58 |
| Cn1c(=O)ccc2c(NC(=O)N[C@H]3CCOc4cc(OC(F)(F)F)ccc43)cccc21 [Example 78, 1-(1-methyl-2-oxo-1,2-dihydroquinolin-5-yl)-3-[(4S)-7-(trifluoromethoxy)-3,4-dihydro-2H-chromen-4-yl]urea] | 0.091 | 46 |
| COCC1(COC)C[C@@H](NC(=O)Nc2cccc3c2ccc(=O)n3C)c2cc(F)ccc2O1 [Example 79, 1-[(4R)-6-fluoro-2,2-bis(methoxymethyl)-3,4-dihydro-2H-chromen-4-yl]-3-(1-methyl-2-oxo-1,2-dihydroquinolin-5-yl)urea] | 0.26 | 46 |
| Cn1c(=O)ccc2c(NC(=O)N[C@@H]3CC(CF)(CF)Oc4ccccc43)cccc21 [Example 80, 1-[(4R)-2,2-bis(fluoromethyl)-3,4-dihydro-2H-chromen-4-yl]-3-(1-methyl-2-oxo-1,2-dihydroquinolin-5-yl)urea] | 0.063 | 45 |
| Cn1c(=O)ccc2c(NC(=O)N[C@@H]3CC(C)(C)Oc4c3ccc(F)c4F)cccc21 [Example 81, 1-[(4R)-7,8-difluoro-2,2-dimethyl-3,4-dihydro-2H-chromen-4-yl]-3-(1-methyl-2-oxo-1,2-dihydroquinolin-5-yl)urea] | 0.053 | 39 |
| Cn1c(=O)ccc2c(NC(=O)N[C@@H]3CCOc4ccc(F)cc43)cccc21 [Example 82, 1-[(4R)-6-fluoro-3,4-dihydro-2H-chromen-4-yl]-3-(1-methyl-2-oxo-1,2-dihydroquinolin-5-yl)urea] | 0.25 | 56 |
| Cn1c(=O)ccc2c(NC(=O)N[C@@H]3CCc4cc(F)ccc43)cccc21 [Example 83, 1-[(1R)-5-fluoro-2,3-dihydro-1H-inden-1-yl]-3-(1-methyl-2-oxo-1,2-dihydroquinolin-5-yl)urea] | 0.019 | 36 |
| Cn1c(=O)ccc2c(NC(=O)N[C@@H]3CC(C)(C)Oc4c3ccc(Cl)c4F)cccc21 [Example 85, 1-[(4R)-7-chloro-8-fluoro-2,2-dimethyl-3,4-dihydro-2H-chromen-4-yl]-3-(1-methyl-2-oxo-1,2-dihydroquinolin-5-yl)urea] | 0.023 | 39 |
| Cn1c(=O)ccc2c(NC(=O)N[C@@H]3CCc4cc(C(F)(F)F)ccc43)cccc21 [Example 86, 1-(1-methyl-2-oxo-1,2-dihydroquinolin-5-yl)-3-[(1R)-5-(trifluoromethyl)-2,3-dihydro-1H-inden-1-yl]urea] | 0.01 | 23 |
| Cn1c(=O)ccc2c(NC(=O)N[C@@H]3CCOc4cc(OC(F)(F)F)ccc43)cccc21 [Example 87, 1-(1-methyl-2-oxo-1,2-dihydroquinolin-5-yl)-3-[(4R)-7-(trifluoromethoxy)-3,4-dihydro-2H-chromen-4-yl]urea] | 0.028 | 57 |
| Cn1c(=O)ccc2c(NC(=O)N[C@H]3CC4(CCC4)Oc4ccc(F)cc43)cccc21 [Example 88, 1-[(4S)-6-fluoro-3,4-dihydrospiro[chromene-2,1′-cyclobutan]-4-yl]-3-(1-methyl-2-oxo-1,2-dihydroquinolin-5-yl)urea] | 2.5 | 51 |
| Cn1c(=O)ccc2c(NC(=O)N[C@@H]3CC(C)(C)Oc4cc(Br)ccc43)cccc21 [Example 89, 1-[(4R)-7-bromo-2,2-dimethyl-3,4-dihydro-2H-chromen-4-yl]-3-(1-methyl-2-oxo-1,2-dihydroquinolin-5-yl)urea] | 0.031 | 53 |
| Cn1c(=O)ccc2c(NC(=O)N[C@@H]3C[C@](C)(C(F)(F)F)Oc4ccccc43)cccc21 [Example 90, 1-(1-methyl-2-oxo-1,2-dihydroquinolin-5-yl)-3-[(2R,4R)-2-methyl-2-(trifluoromethyl)-3,4-dihydro-2H-chromen-4-yl]urea] | 0.011 | 45 |
| Cn1c(=O)ccc2c(NC(=O)N[C@@H]3CC(C)(C)Oc4cc(C(F)(F)F)ccc43)cccc21 [Example 91, 1-[(4R)-2,2-dimethyl-7-(trifluoromethyl)-3,4-dihydro-2H-chromen-4-yl]-3-(1-methyl-2-oxo-1,2-dihydroquinolin-5-yl)urea] | 0.015 | 50 |
| Cn1c(=O)ccc2c(NC(=O)N[C@@H]3CC(CF)(CF)Oc4cc(C(F)(F)F)ccc43)cccc21 [Example 92, 1-[(4R)-2,2-bis(fluoromethyl)-7-(trifluoromethyl)-3,4-dihydro-2H-chromen-4-yl]-3-(1-methyl-2-oxo-1,2-dihydroquinolin-5-yl)urea] | 0.019 | 43 |
| Cn1c(=O)ccc2c(NC(=O)N[C@@H]3CC(C)(C)Oc4c3cccc4C(F)(F)F)cccc21 [Example 93, 1-[(4R)-2,2-dimethyl-8-(trifluoromethyl)-3,4-dihydro-2H-chromen-4-yl]-3-(1-methyl-2-oxo-1,2-dihydroquinolin-5-yl)urea] | 0.039 | 47 |
